Assay results: US20250134855A1, “CO[…] AND METHODS OF USING SAME” (LYKOS THERAPEUTICS, INC., priority 2022, published 2025)

Test: Population PK (PPK) model of MDMA and MDA (NONMEM)
Parameters: species or system human
Excerpt: This example describes the methodology that was used to characterize the PPK of MDMA and its active minor metabolite MDA and the related model-based simulations.
For the PPK analysis, an individual was defined as evaluable if the following criteria were satisfied: • 1. Received at least one dose of MDMA • 2. Had at least one measurable MDMA observation with associated sampling time and dosing information for the MDMA modeling • 3. Had at least one measurable paired MDMA/MDA observation with associated sampling time and dosing information for the MDMA modeling
The evaluation of the impact of covariates on the MDMA and MDA PPK models focused on the most clinically relevant covariates. Prior to covariate selection, a correlation matrix was generated to determine the correlation between covariates. Only the most significant covariate among the highly correlated covariates was included in the model.
Software Nonlinear mixed-effects modeling software (NONMEM®; version 7.4; ICON, Hanover, MD, US), a software package for nonlinear mixed-effects analysis was used for the PPK modeling. R (version 4.0.2) was used for simulations (e.g., to derive exposure measures for subsequent model application analysis).
Algorithms for the Development of the Population PK Model Plasma concentration-time data was analyzed using a nonlinear mixed effects modeling approach. The first-order conditional estimation method of NONMEM with interaction (FOCE INTER) was used for PPK model development.
One-, and two-compartment models were evaluated for MDMA based on the shape of the observed concentration-time profile. MDMA absorption was evaluated in two ways: as a first-order process and as a sequential zero-order process followed by first-order absorption. MDA was developed as a sequential model, with one-, two, and three-compartment models tested.
They were modeled assuming a log-normal distribution as given by the following expression: θki=θk×e^ηk^i where θki denotes the k^th parameter value for the i^th patient, θk denotes the typical parameter value, and ηki denotes the inter-individual random effect for the i^th patient—assumed to have mean of 0 (zero) and variance ωk^2. Collectively, the vector of random effects (across the parameters indexed by k) has the covariance matrix Ω. Covariance matrix structures including diagonal and blocked diagonal structures were evaluated after the completion of covariate model building. The residual error structure was assumed to follow an additive, proportional, or combined additive and proportional error model described by the following:
The subset of covariate-parameter relationships to be included was selected based on exploratory graphical analysis, mechanistic plausibility, and scientific and clinical interest. […] This was either the covariate with the strongest influence as determined by exploratory graphical analysis or the variable that is most meaningful from a clinical, biological, or practical perspective. Continuous covariates were preferred over categorized covariates with the same meaning.
However, graphical covariate analysis can be relied on only if n-shrinkage in the respective population model parameters is low. Covariates that fulfilled the above criteria were tested in a stepwise process. The covariate selection was performed using a forward addition process followed by backward elimination. The likelihood ratio test was used to evaluate the significance of incorporating or removing fixed effects into the population model based on significance levels that were set a priori. For forward addition and backward elimination, significance levels of 0.01 and 0.001 were employed, respectively. The improvement of the model relative to the base model was compared after each of the covariates was added univariately, and the model with the largest improvement was kept for the next evaluation step, given that there was an overall statistical significance supporting the inclusion of the respective covariate. […]

[1] = MPXF (N =16), population parameter, IIV not included
[2] = 5th percentile of body weight (52 kg)
[3] = 95th percentile of body weight (97 kg)

CC(N)Cc1ccc2c(c1)OCO2 (stereo not shown) [MDA, 3,4-methylenedioxyamphetamine]
MDA Clearance, CLM, post hoc Geo. mean (MPXF (N =16)): 29.7 L/h | MDA Intercompartmental Clearance, QM, post hoc Geo. mean (MPXF (N =16)): 68.4 L/h | MDA Central Volume, V3 [1]: 20.8 L | CLM, base model estimate (base MDA model): 35.6 L/h | IIV on CLM (base MDA model): 37.7 | IIV on QM (base MDA model): 55.8 | IIV on V4 (base MDA model): 43.5 | V3, base model estimate (base MDA model): 19.4 L | lower V4 (MDA peripheral volume of distribution) (female compared to male subjects): 18% | Body weight effect on CLM, Bootstrap median (final MDA model): 0.585 | Body weight effect on CLM, estimate (final MDA model): 0.580 | Body weight effect on QM, Bootstrap median (final MDA model): 1.02 | Body weight effect on QM, estimate (final MDA model): 1.00 | CLM, Bootstrap median (final MDA model): 83.9 L/h | CLM, final model estimate (final MDA model): 79.6 L/h | Sex effect on V4, Bootstrap median (final MDA model): −0.18 | V4, Bootstrap median (final MDA model): 213 L | V4, final model estimate (final MDA model): 213 L

CNC(C)Cc1ccc2c(c1)OCO2 (stereo not shown) [MDMA, 3,4-methylenedioxymethamphetamine]
higher MDMA AUC0-44 relative to reference individual [2]: 30% | higher MDMA Cmax relative to reference individual [2]: 30% | lower MDMA AUC0-44 relative to reference individual [3]: 28% | lower MDMA Cmax relative to reference individual [3]: 25% | Cmax MDMA, post hoc Geo. mean (MPKF Fasted 120 mg (N = 16)): 246.0 ng/mL | Cmax MDMA, post hoc Geo. mean (MPKF Fed 120 mg (N = 14)): 197.3 ng/mL | Post Hoc Absorption Rate, Geo. mean (Geo. CV %) (MPKF Fed (N = 14), high fat meal): 0.6 (50.2) 1/h | Post Hoc Absorption Rate, Geo. mean (Geo. CV %) (MPKT Fasted (N = 16)): 3.5 (47.0) 1/h | Duration of zero order absorption, D1, post hoc Geo. mean (MPXF (N =16)): 0.4 h | Half-life MDMA, t½, post hoc Geo. mean (MPXF (N =16)): 8.7 h | MDMA Apparent Volume of Distribution, V, post hoc Geo. mean (MPXF (N =16)): 368.3 L | Lag time, ALAG [1]: 0.3 h | time to complete clearance (5 half-lives) (assumed): 38.5 to 43.5 h | ALAG1, base model estimate (base MDMA model): 0.312 h | CL/F, base model estimate (base MDMA model): 38.3 L/h | D1, base model estimate (base MDMA model): 0.242 h | IIV on D1 (base MDMA model): 159 | IIV on Ka (base MDMA model): 55.9 | IIV on V2/F (base MDMA model): 28.5 | V2/F, base model estimate (base MDMA model): 444 L | ka, base model estimate (base MDMA model): 1.14 h⁻¹ | ALAG1, Bootstrap median (final MDMA model): 0.323 h | ALAG1, final model estimate (final MDMA model): 0.322 h | Body weight effect on V2/F, Bootstrap median (final MDMA model): 0.884 | Body weight effect on V2/F, estimate (final MDMA model): 0.885 | CL/F, Bootstrap median (final MDMA model): 41.8 L/h | CL/F, final model estimate (final MDMA model): 41.5 L/h | D1, Bootstrap median (final MDMA model): 0.271 h | D1, final model estimate (final MDMA model): 0.304 h | Fasted status effect on KA, Bootstrap median (final MDMA model): 1.08 | Fasted status effect on KA, estimate (final MDMA model): 1.93 | Fed status effect on KA, Bootstrap median (final MDMA model): −0.496 | Fed status effect on KA, estimate (final MDMA model): −0.484 | IIV on D1 (final MDMA model): 153 | IIV on KA (final MDMA model): 60.2 | IIV on V2/F (final MDMA model): 19.9 | Study effect on V2/F, Bootstrap median (final MDMA model): −0.267 | Study effect on V2/F, estimate (final MDMA model): −0.263 | V2/F, Bootstrap median (final MDMA model): 461 L | V2/F, final model estimate (final MDMA model): 462 L | ka, Bootstrap median (final MDMA model): 1.17 h⁻¹ | ka, final model estimate (final MDMA model): 1.17 h⁻¹ | lower Ka (subjects fed a high fat diet): 49%
